# Reference: patent US10550079B2, “Artificial self-sufficient cytochrome P450s” (University of Florida Research Foundation, Incorporated, priority 2015, dated 2020)
# Assays:
# [1] = target: T1, TxtE-BM3R (UniProt C9ZDC6+P14779); test: Nitration of fluorinated tryptophan substrates by TxtE-BM3R; type: biochemical, S. scabies 87.22 / B. megaterium ATCC 14581
# T1 construct: P450BM3 (CYP102A1) reductase domain BM3R with its Domcut-predicted native linker, from B. megaterium ATCC 14581 (GenBank J04832.1); made in house; host or cells: E. coli BL21 (DE3)-GOLD
# Method: (§1) P450 reactions contained 0.5 mM substrate, 1 mM NADP^+, 1 mM glucose, ˜10 units/mL self-prepared glucose dehydrogenase crude extract, 1 mM NOC-5 in 100 μL of Tris-HCl buffer (100 mM, pH 8.0). As the positive control, TxtE reaction was also re-constructed in the above mixture further supplemented with 0.43 μM spinach Fer and 0.33 μM Frd. The reactions were initiated by adding 1.5 μM P450s, and incubated at 20° C., 300 rpm on a thermostat (Eppendorf) for 2 hours. Methanol (200 μl) was then added to stop the reactions. After centrifugation, 10 μl solutions were analyzed by HPLC. […] The flow rate was set as 1.5 ml/min, and the products were detected at 211 nm with a PDA detector. […]
# (§2) P450 reactions contained 0.5 mM substrate, 1 mM NADP^+, 1 mM glucose, ˜10 units/mL self-prepared glucose dehydrogenase crude extract, 1 mM NOC-5 [3-(aminopropyl)-1-hydroxy-3-isopropyl-2-oxo-1-triazene] in 100 μL of Tris-HCl buffer (100 mM, pH 8.0). […] After centrifugation, 10 μl solutions were analyzed by HPLC. […] The 4-NO2-l-tryptophan was synthesized in a large-scale enzymatic reaction to establish a standard curve for product quantification. […] NADPH consumption in enzyme reactions was measured at 340 nm (ε=6.22 mM^−1·cm^−1) with a Shimadzu UV2700 dual beam UV-Vis spectrophotometer. […] The quantity of nitrated product was determined by HPLC analysis as described above. […]
# [2] = target: TxtE (Streptomyces scabiei, UniProt C9ZDC6); test: Nitration of fluorinated tryptophan substrates by TxtE; type: biochemical, S. scabies 87.22; parameters: inferred from the pET28 vector and Ni-NTA purification) (C); made in house; host or cells: E. coli BL21 (DE3)-GOLD
# Method: as §1, §2
smiles,measurement,setting,value
N[C@@H](Cc1c[nH]c2cccc(F)c12)C(=O)O [4-F-L-tryptophan],overall conversion rate relative to L-tryptophan,[1],about 20%
same,overall conversion rate relative to L-tryptophan,[2],about 20%
